Data from ChEMBL document CHEMBL4665836, “Overcoming β-Lactam resistance in Pseudomonas aeruginosa using non-canonical tobramycin-based antibiotic adjuvants” (2020).

Experiments:
Type in all cases: functional
[1] = tested on: Pseudomonas aeruginosa; assay: Potentiation of imipenem-induced antibacterial activity against carbapenem-resistant Pseudomonas aeruginosa 86052 clinical isolate assessed as fold reduction in imipenem MIC at 8 uM in presence of beta-lactamase inhibitor, rele-bactam
[2] = tested on: Pseudomonas aeruginosa; assay: Potentiation of imipenem-induced antibacterial activity against carbapenem-resistant Pseudomonas aeruginosa 88949 clinical isolate assessed as fold reduction in imipenem MIC at 8 uM in presence of beta-lactamase inhibitor, rele-bactam
[3] = tested on: Pseudomonas aeruginosa; assay: Potentiation of imipenem-induced antibacterial activity against carbapenem-resistant Pseudomonas aeruginosa 108590 clinical isolate assessed as fold reduction in imipenem MIC at 8 uM in presence of beta-lactamase inhibitor, rele-bactam
[4] = tested on: Pseudomonas aeruginosa; assay: Potentiation of imipenem-induced antibacterial activity against carbapenem-resistant Pseudomonas aeruginosa 109084 clinical isolate assessed as fold reduction in imipenem MIC at 8 uM in presence of beta-lactamase inhibitor, rele-bactam
[5] = tested on: Pseudomonas aeruginosa; assay: Potentiation of aztreonam-induced antibacterial activity against carbapenem-resistant Pseudomonas aeruginosa 107092 clinical isolate assessed as fold reduction in aztreonam MIC at 8 uM in presence of beta-lactamase inhibitor, avi-bactam
[6] = tested on: Pseudomonas aeruginosa; assay: Potentiation of ceftazidime-induced antibacterial activity against carbapenem-resistant Pseudomonas aeruginosa 108590 clinical isolate assessed as fold reduction in ceftazidime MIC at 8 uM in presence of beta-lactamase inhibitor, avi-bactam
[7] = tested on: Pseudomonas aeruginosa; assay: Potentiation of ceftazidime-induced antibacterial activity against carbapenem-resistant Pseudomonas aeruginosa 107092 clinical isolate assessed as fold reduction in ceftazidime MIC at 8 uM in presence of beta-lactamase inhibitor, avi-bactam
[8] = tested on: Pseudomonas aeruginosa; assay: Potentiation of imipenem-induced antibacterial activity against carbapenem and colistin-resistant Pseudomonas aeruginosa 91433 clinical isolate assessed as imipenem MIC at 8 uM by checkerboard assay (reference value: 8 ug/ml)
[9] = tested on: Pseudomonas aeruginosa; assay: Potentiation of imipenem-induced antibacterial activity against carbapenem-resistant Pseudomonas aeruginosa 264-104354 clinical isolate assessed as imipenem MIC at 8 uM by checkerboard assay (reference value: 16 ug/ml)
[10] = tested on: Pseudomonas aeruginosa; assay: Potentiation of imipenem-induced antibacterial activity against carbapenem-resistant Pseudomonas aeruginosa 262-101856 clinical isolate assessed as imipenem MIC at 8 uM by checkerboard assay (reference value: 32 ug/ml)
[11] = tested on: Pseudomonas aeruginosa; assay: Potentiation of imipenem-induced antibacterial activity against carbapenem-resistant Pseudomonas aeruginosa 260-97103 clinical isolate assessed as imipenem MIC at 8 uM by checkerboard assay (reference value: 16 ug/ml)
[12] = tested on: Pseudomonas aeruginosa; assay: Potentiation of imipenem-induced antibacterial activity against carbapenem-resistant Pseudomonas aeruginosa 259-96918 clinical isolate expressing MBL assessed as imipenem MIC at 8 uM by checkerboard assay (reference value: 64 ug/ml)
[13] = tested on: Pseudomonas aeruginosa; assay: Potentiation of ceftazidime-induced antibacterial activity against carbapenem-resistant Pseudomonas aeruginosa PAO750 harboring and mexAB-oprM/mexCD-oprJ/mexEF-oprN/mexJK/mexXY/opmH efflux deficient mutant assessed as ceftazidime MIC at 8 uM by checkerboard assay (reference value: 0.5 ug/ml)
[14] = tested on: Pseudomonas aeruginosa; assay: Potentiation of ceftazidime-induced antibacterial activity against carbapenem-resistant Pseudomonas aeruginosa PAO200 harboring mexAB-oprM efflux deficient mutant assessed as ceftazidime MIC at 8 uM by checkerboard assay (reference value: 1 ug/ml)
[15] = tested on: Pseudomonas aeruginosa; assay: Potentiation of ceftazidime-induced antibacterial activity against carbapenem-resistant Pseudomonas aeruginosa 109084 clinical isolate assessed as ceftazidime MIC at 8 uM by checkerboard assay (reference value: 64 ug/ml)
[16] = tested on: Pseudomonas aeruginosa; assay: Potentiation of ceftazidime-induced antibacterial activity against carbapenem-resistant Pseudomonas aeruginosa 108590 clinical isolate assessed as ceftazidime MIC at 8 uM by checkerboard assay (reference value: 32 ug/ml)
[17] = tested on: Pseudomonas aeruginosa; assay: Potentiation of ceftazidime-induced antibacterial activity against carbapenem-resistant Pseudomonas aeruginosa 88949 clinical isolate assessed as ceftazidime MIC at 8 uM by checkerboard assay (reference value: 64 ug/ml)
[18] = tested on: Pseudomonas aeruginosa; assay: Potentiation of ceftazidime-induced antibacterial activity against carbapenem and colistin-resistant Pseudomonas aeruginosa 114228 clinical isolate assessed as ceftazidime MIC at 8 uM by checkerboard assay (reference value: 8 ug/ml)
[19] = tested on: Pseudomonas aeruginosa; assay: Potentiation of ceftazidime-induced antibacterial activity against carbapenem and colistin-resistant Pseudomonas aeruginosa 101243 clinical isolate assessed as ceftazidime MIC at 8 uM by checkerboard assay (reference value: 64 ug/ml)
[20] = tested on: Pseudomonas aeruginosa; assay: Potentiation of ceftazidime-induced antibacterial activity against carbapenem-resistant Pseudomonas aeruginosa 101885 clinical isolate assessed as ceftazidime MIC at 8 uM by checkerboard assay (reference value: 8 ug/ml)
[21] = tested on: Pseudomonas aeruginosa; assay: Potentiation of ceftazidime-induced antibacterial activity against carbapenem-resistant Pseudomonas aeruginosa 100036 clinical isolate assessed as ceftazidime MIC at 8 uM by checkerboard assay (reference value: 8 ug/ml)
[22] = tested on: Pseudomonas aeruginosa; assay: Potentiation of ceftazidime-induced antibacterial activity against carbapenem-resistant Pseudomonas aeruginosa 262-101856 clinical isolate assessed as ceftazidime MIC at 8 uM by checkerboard assay (reference value: 16 ug/ml)
[23] = tested on: Pseudomonas aeruginosa; assay: Potentiation of ceftazidime-induced antibacterial activity against wild type Pseudomonas aeruginosa PAO1 assessed as ceftazidime MIC at 8 uM by checkerboard assay (reference value: 2 ug/ml)
[24] = tested on: Pseudomonas aeruginosa; assay: Potentiation of aztreonam-induced antibacterial activity against carbapenem-resistant Pseudomonas aeruginosa 109084 clinical isolate assessed as aztreonam MIC at 8 uM by checkerboard assay (reference value: 64 ug/ml)
[25] = tested on: Pseudomonas aeruginosa; assay: Potentiation of aztreonam-induced antibacterial activity against carbapenem-resistant Pseudomonas aeruginosa 107092 clinical isolate assessed as aztreonam MIC at 8 uM by checkerboard assay (reference value: 64 ug/ml)
[26] = tested on: Pseudomonas aeruginosa; assay: Potentiation of aztreonam-induced antibacterial activity against carbapenem-resistant Pseudomonas aeruginosa 88949 clinical isolate assessed as aztreonam MIC at 8 uM by checkerboard assay (reference value: 32 ug/ml)
[27] = tested on: Pseudomonas aeruginosa; assay: Potentiation of aztreonam-induced antibacterial activity against carbapenem-resistant Pseudomonas aeruginosa 100036 clinical isolate assessed as aztreonam MIC at 8 uM by checkerboard assay (reference value: 16 ug/ml)
[28] = tested on: Pseudomonas aeruginosa; assay: Potentiation of aztreonam-induced antibacterial activity against carbapenem and colistin-resistant Pseudomonas aeruginosa 91433 clinical isolate assessed as aztreonam MIC at 8 uM by checkerboard assay (reference value: 16 ug/ml)
[29] = tested on: Pseudomonas aeruginosa; assay: Potentiation of aztreonam-induced antibacterial activity against carbapenem-resistant Pseudomonas aeruginosa 264-104354 clinical isolate assessed as aztreonam MIC at 8 uM by checkerboard assay (reference value: 32 ug/ml)
[30] = tested on: Pseudomonas aeruginosa; assay: Potentiation of aztreonam-induced antibacterial activity against carbapenem-resistant Pseudomonas aeruginosa 260-97103 clinical isolate assessed as aztreonam MIC at 8 uM by checkerboard assay (reference value: 64 ug/ml)
[31] = tested on: Pseudomonas aeruginosa; assay: Potentiation of aztreonam-induced antibacterial activity against wild type Pseudomonas aeruginosa PAO1 assessed as aztreonam MIC at 8 uM by checkerboard assay (reference value: 4 ug/ml)
[32] = tested on: Pseudomonas aeruginosa; assay: Antibacterial activity against Pseudomonas aeruginosa PAO200 harboring mexAB-oprM efflux deficient mutant
[33] = tested on: Pseudomonas aeruginosa; assay: Antibacterial activity against wild type Pseudomonas aeruginosa PAO1

SMILES | fold change (FC) [1] | fold change (FC) [2] | fold change (FC) [3] | fold change (FC) [4] | fold change (FC) [5] | fold change (FC) [6] | fold change (FC) [7] | MIC [8] | MIC [9] | MIC [10] | MIC [11] | MIC [12] | MIC [13] | MIC [14] | MIC [15] | MIC [16] | MIC [17] | MIC [18] | MIC [32] | MIC [33] | other results
Cl.Cl.Cl.Cl.Cl.Cl.NC[C@H]1O[C@H](O[C@H]2[C@H](OCCCCCCCCCCCCN3CCN(c4cc5c(cc4F)c(=O)c(C(=O)O)cn5C4CC4)CC3)[C@@H](O[C@H]3O[C@H](CO)[C@@H](O)[C@H](N)[C@H]3O)[C@H](N)C[C@@H]2N)[C@H](N)C[C@@H]1O | 16 | 16 | 16 | 16 | 16 | 16 | 16 | 2 µg/mL | 4 µg/mL | 4 µg/mL | 2 µg/mL | 16 µg/mL | 0.03 µg/mL | 0.06 µg/mL | 16 µg/mL | 0.5 µg/mL | 32 µg/mL | 0.5 µg/mL | 4 µg/mL | 32 µg/mL | MIC [19]: 8 µg/mL; MIC [20]: 1 µg/mL; MIC [21]: 2 µg/mL; MIC [22]: 4 µg/mL; MIC [23]: 0.25 µg/mL; MIC [24]: 16 µg/mL; MIC [25]: 8 µg/mL; MIC [26]: 8 µg/mL; MIC [27]: 4 µg/mL; MIC [28]: 4 µg/mL; MIC [29]: 8 µg/mL; MIC [30]: 4 µg/mL; MIC [31]: 0.25 µg/mL
NC[C@H]1O[C@H](O[C@H]2[C@H](OCCCCCCCCN3CCCNCCNCCCNCC3)[C@@H](O[C@H]3O[C@H](CO)[C@@H](O)[C@H](N)[C@H]3O)[C@H](N)C[C@@H]2N)[C@H](N)C[C@@H]1O.O=C(O)C(F)(F)F.O=C(O)C(F)(F)F.O=C(O)C(F)(F)F.O=C(O)C(F)(F)F.O=C(O)C(F)(F)F.O=C(O)C(F)(F)F.O=C(O)C(F)(F)F.O=C(O)C(F)(F)F.O=C(O)C(F)(F)F | 16 | 16 | 16 | 16 | 16 | 16 | 16 | 8 µg/mL | 8 µg/mL | 16 µg/mL | 8 µg/mL | 64 µg/mL |  |  |  |  |  |  | > 128 µg/mL | > 128 µg/mL | 
NC[C@H]1O[C@H](O[C@H]2[C@H](OCCCCCCCCN3CCCNCCNCCCNCC3)[C@@H](O)[C@H](N)C[C@@H]2N)[C@H](N)C[C@@H]1O.O=C(O)C(F)(F)F.O=C(O)C(F)(F)F.O=C(O)C(F)(F)F.O=C(O)C(F)(F)F.O=C(O)C(F)(F)F.O=C(O)C(F)(F)F.O=C(O)C(F)(F)F.O=C(O)C(F)(F)F | 16 | 16 | 16 | 16 | 16 | 16 | 16 | 4 µg/mL | 16 µg/mL | 16 µg/mL | 8 µg/mL | 32 µg/mL | 0.13 µg/mL | 0.13 µg/mL | 32 µg/mL | 16 µg/mL | 64 µg/mL | 4 µg/mL | > 128 µg/mL | > 128 µg/mL | MIC [19]: 8 µg/mL; MIC [20]: 2 µg/mL; MIC [21]: 4 µg/mL; MIC [22]: 16 µg/mL; MIC [23]: 0.5 µg/mL; MIC [24]: 32 µg/mL; MIC [25]: 32 µg/mL; MIC [26]: 32 µg/mL; MIC [27]: 8 µg/mL; MIC [28]: 8 µg/mL; MIC [29]: 16 µg/mL; MIC [30]: 8 µg/mL; MIC [31]: 0.5 µg/mL
Cl.Cl.Cl.Cl.Cl.NC[C@H]1O[C@H](O[C@H]2[C@H](OCCCCCCCCCCCCN3CCN(c4cc5c(cc4F)c(=O)c(C(=O)O)cn5C4CC4)CC3)[C@@H](O)[C@H](N)C[C@@H]2N)[C@H](N)C[C@@H]1O | 16 | 16 | 16 | 16 | 16 | 16 | 16 | 8 µg/mL | 8 µg/mL | 8 µg/mL | 2 µg/mL | 16 µg/mL | 0.01 µg/mL | 0.13 µg/mL | 32 µg/mL | 1 µg/mL | 32 µg/mL | 4 µg/mL | 4 µg/mL | 32 µg/mL | MIC [19]: 4 µg/mL; MIC [20]: 4 µg/mL; MIC [21]: 4 µg/mL; MIC [22]: 4 µg/mL; MIC [23]: 0.25 µg/mL; MIC [24]: 32 µg/mL; MIC [25]: 32 µg/mL; MIC [26]: 8 µg/mL; MIC [27]: 8 µg/mL; MIC [28]: 8 µg/mL; MIC [29]: 16 µg/mL; MIC [30]: 0.25 µg/mL; MIC [31]: 0.5 µg/mL
NC[C@H]1O[C@H](O[C@H]2[C@H](OCCCCc3cn(CCCCO[C@@H]4[C@@H](O[C@H]5O[C@H](CO)[C@@H](O)[C@H](N)[C@H]5O)[C@H](N)C[C@H](N)[C@H]4O[C@H]4O[C@H](CN)[C@@H](O)C[C@H]4N)nn3)[C@@H](O[C@H]3O[C@H](CO)[C@@H](O)[C@H](N)[C@H]3O)[C@H](N)C[C@@H]2N)[C@H](N)C[C@@H]1O.O=C(O)C(F)(F)F.O=C(O)C(F)(F)F.O=C(O)C(F)(F)F.O=C(O)C(F)(F)F.O=C(O)C(F)(F)F.O=C(O)C(F)(F)F.O=C(O)C(F)(F)F.O=C(O)C(F)(F)F.O=C(O)C(F)(F)F.O=C(O)C(F)(F)F | 16 | 16 | 16 | 16 | 16 | 16 | 16 | 4 µg/mL | 4 µg/mL | 2 µg/mL | 16 µg/mL | 32 µg/mL | 0.06 µg/mL | 0.13 µg/mL | 32 µg/mL | 8 µg/mL | 16 µg/mL | 1 µg/mL | > 128 µg/mL | > 128 µg/mL | MIC [19]: 64 µg/mL; MIC [20]: 2 µg/mL; MIC [21]: 2 µg/mL; MIC [22]: 2 µg/mL; MIC [23]: 0.25 µg/mL; MIC [24]: 8 µg/mL; MIC [25]: 16 µg/mL; MIC [26]: 32 µg/mL; MIC [27]: 2 µg/mL; MIC [28]: 4 µg/mL; MIC [29]: 8 µg/mL; MIC [30]: 16 µg/mL; MIC [31]: 0.25 µg/mL
